Drawing on patent US9085603B2, “Progesterone receptor antagonists” (Bayer Intellectual Property GmbH, priority 2010, dated 2015), this text covers IC50 for 17 compounds.

Molecules are shown by their SMILES.

For the experiment, the target named is T1, human progesterone receptor A (Homo sapiens, UniProt P06401).
T1 construct: expressed in transfected cells; host or cells: SK-N-MC human neuroblastoma cells, stably transfected with pRChPR-A-neo and pMMTV-LUC
T1 sequence (P06401 1-769 isoform P06401-2): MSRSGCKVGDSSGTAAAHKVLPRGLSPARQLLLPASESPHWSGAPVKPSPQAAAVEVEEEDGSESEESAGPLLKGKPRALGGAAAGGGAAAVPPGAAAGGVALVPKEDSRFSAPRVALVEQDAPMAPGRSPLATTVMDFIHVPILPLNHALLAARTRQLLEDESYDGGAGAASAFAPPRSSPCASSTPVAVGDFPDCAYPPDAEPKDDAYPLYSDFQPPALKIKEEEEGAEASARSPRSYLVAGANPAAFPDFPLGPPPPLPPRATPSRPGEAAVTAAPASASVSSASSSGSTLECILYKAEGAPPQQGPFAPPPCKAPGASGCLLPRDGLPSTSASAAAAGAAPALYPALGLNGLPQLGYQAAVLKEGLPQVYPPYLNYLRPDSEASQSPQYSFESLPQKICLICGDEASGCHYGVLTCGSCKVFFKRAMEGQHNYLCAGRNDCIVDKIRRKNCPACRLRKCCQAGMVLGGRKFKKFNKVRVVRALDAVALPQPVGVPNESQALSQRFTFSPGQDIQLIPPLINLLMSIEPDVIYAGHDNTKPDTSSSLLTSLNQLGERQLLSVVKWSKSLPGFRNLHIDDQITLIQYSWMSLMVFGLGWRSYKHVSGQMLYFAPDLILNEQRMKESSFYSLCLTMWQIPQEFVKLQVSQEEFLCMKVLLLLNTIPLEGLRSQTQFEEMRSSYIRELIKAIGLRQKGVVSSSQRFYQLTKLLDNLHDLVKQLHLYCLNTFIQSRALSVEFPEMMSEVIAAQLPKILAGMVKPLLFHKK
Put plainly: Progesterone receptor antagonistic effect in stably transfected SK-N-MC cells, MTV-LUC reporter (PR-A). The conditions noted are these: antagonism of 0.1 nmol/l promegestone, luciferase reporter, 24 hours. The class given is cell-based. The procedure: Progesterone Receptor Antagonistic Effect in Stable Transfectants of Human Neuroblastoma Cells (SK-N-MC cells) with the Human Progesterone A or Progesterone B Receptor and a MTV-LUC Reporter Construct
SK-N-MC cells (human neuroblastoma cells), which have been stably transfected with plasmids which express the human progesterone receptor B (pRChPR-B-neo) or the human progesterone receptor A (pRChPR-A-neo) and a reporter construct (pMMTV-LUC), were incubated for 24 hours either in the absence (negative control) or in the presence of increasing amounts of the particular test compound (0.01 nmol/l, 0.1 nmol/l, 1 nmol/l, 10 nmol/l, 100 nmol/l and 1 μmol/l) in order to determine the agonistic efficacy. As a positive control of the reporter gene induction, the cells were treated with the synthetic gestagen promegestone (0.01 nmol/l, 0.1 nmol/l, 1 nmol/l, 10 nmol/l, 100 nmol/l and 1 μmol/l). To determine the antagonistic activity, the cells were treated with 0.1 nmol/l of promegestone and additionally with increasing amounts of the particular test compound (0.01 nmol/l, 0.1 nmol/l, 1 nmol/l, 10 nmol/l, 100 nmol/l and 1 μmol/l). The activity of the reporter gene LUC (LUC=luciferase) was determined in the cell lysates and measured as RLU (relative light units). All measurement values are given as percentage efficacy and as EC50 or IC50 concentrations.
On the technique in general: A reporter such as luciferase makes a cellular process visible.
By IC50 is commonly meant the concentration that gives 50% inhibition. High values mean weaker potency, low ones greater potency. On to `CC(=O)Nc1ccc(NCc2ccc([C@H]3C[C@@]4(C)[C@@H](CC[C@@]4(O)C(F)(F)C(F)(F)F)[C@@H]4CCC5=CC(=O)CCC5=C43)cc2)cc1` [Example 38, N-[4-({4-[(11β,17β)-17-Hydroxy-3-oxo-17-(pentafluoroethyl)estra-4,9-dien-11-yl]benzyl}amino)phenyl]acetamide], for which the IC50 is 0.66 nM.
In the case of `COC(=O)c1cccc(NCc2ccc([C@H]3C[C@@]4(C)[C@@H](CC[C@@]4(O)C(F)(F)C(F)(F)F)[C@@H]4CCC5=CC(=O)CCC5=C43)cc2)c1` [Example 39, Methyl 3-({4-[(11β,17β)-17-hydroxy-3-oxo-17-(pentafluoroethyl)estra-4,9-dien-11-yl]benzyl}amino)benzoate], the IC50 came out at 1.77 nM.
Regarding `C[C@]12C[C@H](c3ccc(CNc4cccc(S(N)(=O)=O)c4)cc3)C3=C4CCC(=O)C=C4CC[C@H]3[C@@H]1CC[C@@]2(O)C(F)(F)C(F)(F)F` [Example 40, 3-({4-[(11β,17β)-17-Hydroxy-3-oxo-17-(pentafluoroethyl)estra-4,9-dien-11-yl]benzyl}amino)benzenesulphonamide], 0.49 nM corresponded to half-maximal inhibition (IC50).
Under `C[C@]12C[C@H](c3ccc(CN4CCC(c5ccccc5)CC4)cc3)C3=C4CCC(=O)C=C4CC[C@H]3[C@@H]1CC[C@@]2(O)C(F)(F)C(F)(F)F` [Example 41, (11β,17β)-17-Hydroxy-17-(pentafluoroethyl)-11-{4-[(4-phenylpiperidin-1-yl)methyl]phenyl}estra-4,9-dien-3-one] stands 11.2 nM.
The compound `CN(C)C(=O)N1CCN(Cc2ccc([C@H]3C[C@@]4(C)[C@@H](CC[C@@]4(O)C(F)(F)C(F)(F)F)[C@@H]4CCC5=CC(=O)CCC5=C43)cc2)CC1` [Example 42, 4-{4-[(11β,17β)-17-Hydroxy-3-oxo-17-(pentafluoroethyl)estra-4,9-dien-11-yl]benzyl}-N,N-dimethylpiperazine-1-carboxamide] yielded an IC50 of 0.52 nM.
`C[C@]12C[C@H](c3ccc(CN4CCN(Cc5ccccn5)CC4)cc3)C3=C4CCC(=O)C=C4CC[C@H]3[C@@H]1CC[C@@]2(O)C(F)(F)C(F)(F)F` [Example 43, (11β,17β)-17-Hydroxy-17-(pentafluoroethyl)-11-(4-{[4-(pyridin-2-ylmethyl)piperazin-1-yl]methyl}phenyl)estra-4,9-dien-3-one] displayed an IC50 of 2.88 nM.
In turn, `C[C@]12C[C@H](c3ccc(CN4CCN(Cc5cccnc5)CC4)cc3)C3=C4CCC(=O)C=C4CC[C@H]3[C@@H]1CC[C@@]2(O)C(F)(F)C(F)(F)F` [Example 44, (11β,17β)-17-Hydroxy-17-(pentafluoroethyl)-11-(4-{[4-(pyridin-3-ylmethyl)piperazin-1-yl]methyl}phenyl)estra-4,9-dien-3-one] had an IC50 of 3.06 nM. This IC50 and that of the compound before are within 1.5-fold of each other.
`CNC(=O)CN1CCN(Cc2ccc([C@H]3C[C@@]4(C)[C@@H](CC[C@@]4(O)C(F)(F)C(F)(F)F)[C@@H]4CCC5=CC(=O)CCC5=C43)cc2)CC1` [Example 45, 2-(4-{4-[(11β,17β)-17-Hydroxy-3-oxo-17-(pentafluoroethyl)estra-4,9-dien-11-yl]benzyl}piperazin-1-yl)-N-methylacetamide]: the IC50 came to 1.65 nM.
Compound `C[C@]12C[C@H](c3ccc(CN4CCCC4)cc3)C3=C4CCC(=O)C=C4CC[C@H]3[C@@H]1CC[C@@]2(O)C(F)(F)C(F)(F)F` [Example 46, (11β,17β)-17-Hydroxy-17-(pentafluoroethyl)-11-[4-(pyrrolidin-1-ylmethyl)phenyl]estra-4,9-dien-3-one] gave an IC50 of 37.4 nM.
Under `C[C@]12C[C@H](c3ccc(CNCc4ccncc4)cc3)C3=C4CCC(=O)C=C4CC[C@H]3[C@@H]1CC[C@@]2(O)C(F)(F)C(F)(F)F` [Example 47, (11β,17β)-17-Hydroxy-17-(pentafluoroethyl)-11-(4-{[(pyridin-4-ylmethyl)amino]methyl}phenyl)estra-4,9-dien-3-one] stands 2.71 nM; under `CN(Cc1ccc([C@H]2C[C@@]3(C)[C@@H](CC[C@@]3(O)C(F)(F)C(F)(F)F)[C@@H]3CCC4=CC(=O)CCC4=C32)cc1)c1ccccc1` [Example 48, (11β,17β)-17-Hydroxy-11-(4-{[methyl(phenyl)amino]methyl}phenyl)-17-(pentafluoroethyl)estra-4,9-dien-3-one], 1.28 nM.
Regarding `C[C@]12C[C@H](c3ccc(CNc4ccccc4C(N)=O)cc3)C3=C4CCC(=O)C=C4CCC3C1CC[C@@]2(O)C(F)(F)C(F)(F)F` (stereo partly drawn) [Example 49, 2-({4-[(11β,17β)-17-Hydroxy-3-oxo-17-(pentafluoroethyl)estra-4,9-dien-11-yl]benzyl}arnino)benzamide], the IC50 stood at 1.29 nM. This IC50 and that of the compound before are within 1.5-fold of each other.
Regarding `C[C@]12C[C@H](c3ccc(CN4CCN(c5ccncc5)CC4)cc3)C3=C4CCC(=O)C=C4CC[C@H]3[C@@H]1CC[C@@]2(O)C(F)(F)C(F)(F)F` [Example 50, (11β,17β)-17-Hydroxy-17-(pentafluoroethyl)-11-(4-{[4-(pyridin-4-yl)piperazin-1-yl]methyl}phenyl)estra-4,9-dien-3-one], the IC50 amounted to 1.2 nM.
As to `CN(C)CCN1CCN(Cc2ccc([C@H]3C[C@@]4(C)C(CC[C@@]4(O)C(F)(F)C(F)(F)F)C4CCC5=CC(=O)CCC5=C43)cc2)CC1` (stereo partly drawn) [Example 51, (11β,17β)-11-[4-({4-[2-(Dimethylamino)ethyl]piperazin-1-yl}methyl)phenyl]-17-hydroxy-17-(pentafluoroethyl)estra-4,9-dien-3-one], the midpoint of inhibition, the IC50, lay at 64.7 nM. Compared with the last compound, the IC50 is about 54-fold higher.
With `CN(CCc1ccccn1)Cc1ccc([C@H]2C[C@@]3(C)[C@@H](CC[C@@]3(O)C(F)(F)C(F)(F)F)[C@@H]3CCC4=CC(=O)CCC4=C32)cc1` [Example 52, (11β,17β)-17-Hydroxy-11-[4-({methyl[2-(pyridin-2-yl)ethyl]amino}methyl)phenyl]-17-(pentafluoroethyl)estra-4,9-dien-3-one], it took 6.5 nM to reach half-maximal inhibition (IC50).
`C[C@]12C[C@H](c3ccc(CNc4cccc(C(N)=O)c4)cc3)C3=C4CCC(=O)C=C4CC[C@H]3[C@@H]1CC[C@@]2(O)C(F)(F)C(F)(F)F` [Example 53, 3-({4-[(11β,17β)-17-Hydroxy-3-oxo-17-(pentafluoroethyl)estra-4,9-dien-11-yl]benzyl}amino)benzamide] gave an IC50 of 0.84 nM.
Compound `C[C@]12C[C@H](c3ccc(CNc4ccc(C(=O)Nc5ccccc5)cc4)cc3)C3=C4CCC(=O)C=C4CC[C@H]3[C@@H]1CC[C@@]2(O)C(F)(F)C(F)(F)F` [Example 54, 4-({4-[(11β,17β)-17-Hydroxy-3-oxo-17-(pentafluoroethyl)estra-4,9-dien-11-yl]benzyl}amino)-N-phenylbenzamide] gave an IC50 of 1.28 nM. Compared with the last compound, the IC50 is about 1.5-fold higher.
